Patent US20240041830A1, “CIRCULATING BIOMARKERS OF RESPONSE TO PD-1/PD-L1 BLOCKADE AND GSK-3 INHIBITION” (Brown University, priority 2022, published 2024)

Tests used:
[1] = test system: adult T-cell leukemia/lymphoma (ATLL); experiment: case of refractory ATLL treated in clinical trial NCT03678883; format: in vivo, human
Description: This EXAMPLE discloses a case of adult T-cell leukemia/lymphoma (ATLL) treated with elraglusib. A patient developed diffuse lymphadenopathy. […] CSF was positive for ATLL involvement. Twenty-two months after the diagnosis of ATLL was confirmed, as a fourth-line therapy in the presence of actively progressing disease, the patient was enrolled a Phase I/II study investigating the safety and efficacy of elraglusib, a selective small molecule inhibitor of glycogen synthase kinase-3 beta (GSK-3β) as monotherapy or in combination with chemotherapy in refractory solid tumors and hematological malignancies (NCT03678883). The patient started treatment with single-agent elraglusib (12.37 mg/kg IV twice weekly: 21-day cycle). […] This stability was confirmed on CT imaging after five and seven cycles of therapy.

TALL-104 = experiment: microarray analysis; format: cell-based, human; settings: 1 μM, 24 hours, vs untreated
Procedure: Microarrays. A total of 0.5×10^6 tumor cells (HCT-116, HT-29, KM12C) were plated in a 6-well plate and allowed to adhere overnight before 24-hour treatment, as indicated. Then, 1×10^6 immune cells (NK92, TALL-104) were plated and treated with elraglusib as indicated for twenty-four h. RNA was isolated from cell pellets in batches of six using a RNeasy Plus Mini Kit (Cat #74134, Qiagen, Hilden, Germany). Acceptable RNA concentration and quality were verified with Nanodrop and Bioanalyzer measurements. GeneChip™ Human Transcriptome Array 2.0 assays were conducted according to manufacturer instructions in two batches using randomized samples to limit batch effects (Cat #902162, Applied Biosystems, Waltham, MA, USA). Applied Biosystems Transcriptomic Analysis Console (TAC) software (RRID: SCR_016519) was used to calculate fold changes in gene expression relative to the untreated control cells. Values were considered statistically significant for p values<0.05.
Microarray analysis was used to obtain insights into gene expression changes in immune cell lines post-GSK-3 inhibition with elraglusib. Immune cell lines (TALL-104, NK-92) were treated with elraglusib at IC50 concentrations or DMSO as vehicle control for twenty-four hours and treated versus untreated samples were compared in triplicate using microarray analysis. FIG. 11. Results were calculated using a fold-change (FC) cutoff of >1.5, <−1.5, and a minimum p-value of <0.05. NK-92 cells had sixty-one differentially expressed genes post-treatment (FIG. 3D). the inventors observed an increase in genes that promote immune cell proliferation (TNFSF14, RAB38) and control immune cell adhesion and migration (WNK1) post-elraglusib treatment.
TABLE 12 description. TALL-104 immune cell microarray analysis. TALL-104 immune cells were treated with 1 μM elraglusib for 24 hours and treated versus untreated control samples were compared in triplicate via microarray analysis (N=3). Table showing differentially expressed genes of interest with their corresponding fold changes, p values, descriptions, and functions. Genes are ordered by fold change and were calculated using a fold change cutoff of >1.5, <−1.5, and a minimum p value of <0.05.

HT-29 = experiment: Western blot analysis; format: cell-based, human
Procedure: (§1) Pyroptosis assay. Recombinant Human TNF-α (Cat #300-01A, PeproTech, Rocky Hill, NJ, USA) and Recombinant Human IFN-γ (Cat #300-02, PeproTech, Rocky Hill, NJ, USA) were purchased for use in western blot analysis while rhTRAIL was generated in-house. See Kim et al., J. Biol. Chem., 279, 40044-40052 (2004).
(§2) Western blot analysis. Cells were plated in a 6-well plate and incubated overnight before the spent media was replaced with drugged media. Drug treatment lasted for indicated durations. Protein was extracted using radioimmunoprecipitation (RIPA) assay buffer (Cat #R0278, Sigma-Aldrich, St. Louis, MO, USA) containing cOmplete™, Mini, EDTA-free Protease Inhibitor Cocktail (Cat #4693159001, Roche, Basel, Switzerland) from sub-confluent cells. Denaturing sample buffer was added, samples were boiled at 95° C. for ten minutes, and an equal amount of protein lysate was electrophoresed through NuPAGE™ 4 to 12%, bis-Tris, 1.5 mm, Mini Protein Gels (Invitrogen, Waltham, MA, USA) then transferred to PVDF membranes. The PVDF membrane was blocked with 5% non-fat milk (Sigma-Aldrich, St. Louis, MO, USA) in 1× TTBS. Primary antibodies were incubated with the transferred PVDF membrane in blocking buffer at 4° C. overnight. Secondary antibodies included Goat anti-Rabbit IgG (H+L) Secondary Antibody, HRP (Cat #31460, Invitrogen, Waltham, MA, USA), and Goat anti-Mouse IgG (H+L) Secondary Antibody, HRP (Cat #31430, Invitrogen, Waltham, MA, USA). The signal was detected using Pierce™ ECL Western Blotting Substrate (Cat #32106, Thermo Scientific, Waltham, MA, USA) and a Syngene Imaging System (RRID: SCR_015770).
(§3) Elraglusib uprequlates tumor cell PD-L1 and proapoptotic pathway expression as well as downregulates immunosuppressive/angiogenic protein expression and pro-survival pathways. The inventors performed Western blot analyses on colorectal cancer cells (HCT-116, HT-29) treated with elraglusib over a 72-hour time course. […] The inventors observed increases in PD-L1 expression as the treatment duration increased. To further elucidate the elraglusib-mediated effects on tumor cell survival, the inventors probed for survival factors Bcl-2 and Survivin and noted decreases in protein expression in both cell lines, especially at the later timepoints (forty-eight hours, seventy-two hours). […] HCT116 cells are heterozygous for β-catenin, harboring one wild-type allele and one mutant allele with inactivation of one of the residues phosphorylated by GSK-3β that is frequently mutated in tumors. Kaler, Augenlicht, & Klampfer, PLoS ONE, 7, e45462 (2012). HT-29, KM12C, and SW480 cells harbor APC mutations. Rowan et al., Proc. Natl. Acad. Sci. USA, 97, 3352 (2000).

HCT-116 = experiment: Western blot analysis; format: cell-based, human
Procedure: as §1, §2, §3

[2] = as treatment duration increased
[3] = especially forty-eight, seventy-two hours
[4] = low dose, until the 48-hour timepoint

Cn1cc(C2=C(c3coc4ccc(F)cc34)C(=O)NC2=O)c2cc3c(cc21)OCO3 [elraglusib]
tolerability ([1]; 12.37 mg/kg IV twice weekly): tolerated the treatment well without significant adverse effects | sIL-2 r serum concentration ([1]; after nineteen cycles of treatment, 9,043 ng/ml one month before treatment): 2,094 ng/ml | CT imaging response by RECIST Criteria ([1]; after ten cycles (seven months), 12.37 mg/kg IV twice weekly): partial response | CT imaging response ([1]; after two cycles, 12.37 mg/kg IV twice weekly, 21-day cycle): stable disease | duration of sustained reduction of peripheral blood ATLL cells ([1]; elraglusib monotherapy): fifteen | ACVR1B Fold Change (TALL-104): −1.61 | BCL2A1 Fold Change (TALL-104): 1.63 | CAMK1D Fold Change (TALL-104): −2.5 | CCL3 Fold Change (TALL-104): 1.52 | CCR8 Fold Change (TALL-104): −2.14 | CD84 Fold Change (TALL-104): −1.53 | CKS1B Fold Change (TALL-104): 1.6 | DUSP6 Fold Change (TALL-104): −1.66 | HSPA1A Fold Change (TALL-104): −1.63 | KIF7 Fold Change (TALL-104): 1.56 | ORAI3 Fold Change (TALL-104): 1.51 | PPARA Fold Change (TALL-104): −1.54 | PTPN3 Fold Change (TALL-104): −1.56 | PTPN14 Fold Change (TALL-104): −1.62 | RNY4 Fold Change (TALL-104): 2.19 | RNY5 Fold Change (TALL-104): 1.66 | STX19 Fold Change (TALL-104): 1.58 | UBE3A Fold Change (TALL-104): −1.73 | VAMP8 Fold Change (TALL-104): 1.56 | NF-κB p65 expression (HT-29; 72-hour time course): decreased expression | PD-L1 expression (HT-29; [2]): increases | Bcl-2 protein expression (HT-29; [3]): decreases | Survivin protein expression (HT-29; [3]): decreases | cleaved PARP (cPARP) (HT-29; [4]): little to no cleaved PARP | NF-κB p65 expression (HCT-116; 72-hour time course): decreased expression | PD-L1 expression (HCT-116; [2]): increases | Mcl-1 protein expression (HCT-116; by the 24-hour timepoint): marked decreases | Bcl-2 protein expression (HCT-116; [3]): decreases | Survivin protein expression (HCT-116; [3]): decreases | cleaved PARP (cPARP) (HCT-116; [4]): little to no cleaved PARP
